Laboratory results: paper PMC9506049, “Oxidation of p-[^125I]Iodobenzoic Acid and p-[^211At]Astatobenzoic Acid Derivatives and Evaluation In Vivo” (International Journal of Molecular Sciences, 2022)
Values belong to the molecule of their own block, whether it stands above or below them.

Legend:
Solubility observations = type: physicochemical
[1] = Biodistribution of coinjected [125I]11 and [211At]13 in athymic mice; type: in vivo; conditions: tail vein coinjection, 3 µCi each, n = 5, mean ± SD; for Concentration of radioactivity in neck: neck (thyroid)
[2] = Stability to isolation from radio-HPLC effluent, evaporation and dissolution in PBS (radio-HPLC reinjection); type: physicochemical; conditions: evaporation of solvents, dissolution in PBS
Description: Similarly, radiohalogenation of para-tri-n-butylstannylbenzamidyl-dPEG4-carboxylic acid methyl ester 9 (Figure 3) using ChT as oxidant provided quantitative yields of [^125I]10 and [^211At]12 by radio-HPLC analyses (Figure 4A,B). The radiohalogenation reaction products were used without purification in the oxidation reactions to make the corresponding iodoxyaryl or astatoxyaryl compounds. Oxidation of [^125I]5 (Figure 2) provided [^125I]6 in 71% RCY. Oxidation of [^125I]10 (Figure 3) at 70 °C for 20 min provided a complex mixture of products, but isolation of the major peak (~6–8 min) provided [^125I]11 in 60% RCY (Figure 4C,E). […]
Two biodistribution studies were conducted. One biodistribution study evaluated the tissue distribution in athymic mice of isolated products from the reactions to produce [^125I]11 and [^211At]13. […]
HPLC analyses of non-radioactive compounds were performed using a system composed of a Hewlett-Packard quaternary 1050 gradient pump, a variable wavelength UW detector (254 nm) and an evaporative light scattering detector (ELSD 2000, Alltech, Deerfield, IL, USA). Radio-HPLC analysis of product mixtures from radiohalogenation reactions were analyzed using a system composed of two Beckman model 110 B pumps, a Beckman 420 controller, a Beckman model 153 UV detector (254 nm), and a Beckman model 170 radiation detector. […]

melting point: 243 to 245 °C | Solubility in DMSO (Solubility observations; DMSO at room temperature): only partially soluble | Solubility (Solubility observations; all solvents tried): very insoluble in all solvents tried
Structure (SMILES): COC(=O)c1ccc(I(=O)=O)cc1 [Compound 6, Para-Iodoxybenzoic Acid Methyl Ester]

Concentration of radioactivity in blood ([1]; 1 h p.i.): 0.22 ± 0.14 %ID/g | Concentration of radioactivity in intestine ([1]; 1 h p.i.): 9.59 ± 8.73 %ID/g | Concentration of radioactivity in kidney ([1]; 1 h p.i.): 0.84 ± 0.23 %ID/g | Concentration of radioactivity in liver ([1]; 1 h p.i.): 1.73 ± 0.96 %ID/g | Concentration of radioactivity in lung ([1]; 1 h p.i.): 0.32 ± 0.10 %ID/g | Concentration of radioactivity in muscle ([1]; 1 h p.i.): 0.12 ± 0.05 %ID/g | Concentration of radioactivity in spleen ([1]; 1 h p.i.): 0.35 ± 0.28 %ID/g | Concentration of radioactivity in stomach ([1]; 1 h p.i.): 3.53 ± 1.09 %ID/g | Concentration of radioactivity in blood ([1]; 4 h p.i.): 0.23 ± 0.18 %ID/g | Concentration of radioactivity in intestine ([1]; 4 h p.i.): 3.39 ± 1.15 %ID/g | Concentration of radioactivity in kidney ([1]; 4 h p.i.): 0.40 ± 0.15 %ID/g | Concentration of radioactivity in liver ([1]; 4 h p.i.): 0.64 ± 0.47 %ID/g | Concentration of radioactivity in lung ([1]; 4 h p.i.): 0.14 ± 0.07 %ID/g | Concentration of radioactivity in muscle ([1]; 4 h p.i.): 0.03 ± 0.01 %ID/g | Concentration of radioactivity in spleen ([1]; 4 h p.i.): 0.08 ± 0.04 %ID/g | Concentration of radioactivity in stomach ([1]; 4 h p.i.): 0.65 ± 0.16 %ID/g | Concentration of radioactivity in blood ([1]; 24 h p.i.): 0.01 ± 0.00 %ID/g | Concentration of radioactivity in intestine ([1]; 24 h p.i.): 0.02 ± 0.01 %ID/g | Concentration of radioactivity in kidney ([1]; 24 h p.i.): 0.03 ± 0.01 %ID/g | Concentration of radioactivity in liver ([1]; 24 h p.i.): 0.01 ± 0.00 %ID/g | Concentration of radioactivity in lung ([1]; 24 h p.i.): 0.54 ± 0.85 %ID/g | Concentration of radioactivity in spleen ([1]; 24 h p.i.): 0.01 ± 0.00 %ID/g | Concentration of radioactivity in stomach ([1]; 24 h p.i.): 0.02 ± 0.01 %ID/g | Concentration of radioactivity in neck ([1]; 1 h p.i.): 0.49 ± 0.09 %ID/g | Concentration of radioactivity in neck ([1]; 4 h p.i.): 0.35 ± 0.14 %ID/g | Concentration of radioactivity in neck ([1]; 24 h p.i.): 0.02 ± 0.01 %ID/g | Stability under the conditions of isolation by radio-HPLC [2]: did not change during that process
Structure (SMILES): COC(=O)CCOCCOCCOCCOCCNC(=O)c1ccc([125I](=O)=O)cc1 [[125I]11]

Structure (SMILES): COC(=O)CCOCCOCCOCCOCCNC(=O)c1ccc([211At](=O)=O)cc1 [[211At]13, p-[^211At]astatoxylbenzoyl-dPEG-methyl ester]
Stability under the conditions of isolation by radio-HPLC [2]: too unstable
